Experimental findings from patent publication US8551984B2, “Aminopyrimidines as SYK inhibitors” (Merck Sharp & Dohme Corp., priority 2009, dated 2013) are described below.

As a reminder, the IC50 is the point on the concentration scale where inhibition reaches its midpoint.

Where only a bound is given, the exact number is not on record here.

The target in one assay is recombinant human SYK (GST-hSYK fusion protein) (Homo sapiens, UniProt P43405). Nature of the assay: biochemical. To be noted: rhSYK Activity (IC50), recombinant human GST-SYK 5 pM, ATP 25 μM, biotinylated substrate peptide 250 nM, HTRF, 10-dose titration. Background: In TR-FRET formats the signal depends on donor and acceptor labels being close together.
From the text: Homogeneous Time-Resolved Fluorescence (HTRF) Assay for the Recombinant Human SYK Enzyme:
In the case of `C=Cc1ccnc(Nc2cc(C)cc(-c3cnc([C@@]4(O)CC[C@H](C(=O)OC)C(C)(C)C4)s3)c2)n1` [Example 101-5], the IC50 is less than 100 nM.
Take `COC(=O)[C@H]1CC[C@](O)(c2ncc(-c3cc(C)cc(Nc4nccc(C5CCC5)n4)c3)s2)CC1(C)C` [Example 101-6]: the IC50 was less than 100 nM.
Consider `COC(=O)[C@H]1CC[C@](O)(c2ncc(-c3cc(C)cc(Nc4nccc(C(N)=O)n4)c3)s2)CC1(C)C` [Example 101-7], for which the IC50 is less than 100 nM.
The same measure, in the same setting: as for `COc1nc(Nc2cc(C)cc(-c3cnc(C4(O)CCC4)s3)c2)ncc1Cl` [Example 102, 1-(5-{3-[(5-chloro-4-methoxypyrimidin-2-yl)amino]-5-methylphenyl}-1,3-thiazol-2-yl)-cyclobutanol], the figure is less than 100 nM.
Consider `Cc1cc(Nc2ncc(Cl)c(C)n2)cc(-c2cnc(C3(O)CCC3)s2)c1` [Example 103, 1-(5-{3-[(5-chloro-4-methylpyrimidin-2-yl)amino]-5-methylphenyl}-1,3-thiazol-2-yl)cyclobutanol], for which the IC50 is less than 100 nM.
Turning to `C=Cc1ccnc(Nc2cc(C)cc(-c3cnc(C4(O)CCC4)s3)c2)n1` [Example 104, 1-(5-{3-[(4-ethenylpyrimidin-2-yl)amino]-5-methylphenyl}-1,3-thiazol-2-yl)cyclobutanol], the half-maximal inhibitory concentration (IC50) is less than 100 nM.
For `COC/C=C/c1ccnc(Nc2cc(C)cc(-c3cnc(C4(O)CCC(C(=O)OC(C)(C)C)CC4)s3)c2)n1` (stereo not shown) [Example 104-1], the IC50 was 100 to 1000 nM.
Still for that read-out and setting: the figure for `COC/C=C/c1ccnc(Nc2cc(C)cc(-c3cnc(C4(O)CCC(C(=O)O)CC4)s3)c2)n1` (stereo not shown) [Example 104-2] is less than 100 nM; for `Cc1cc(Nc2nccc(C(O)CO)n2)cc(-c2cnc(C3(O)CCC3)s2)c1` (stereo not shown) [Example 105, 1-[2-({3-[2-(1-hydroxycyclobutyl)-1,3-thiazol-5-yl]-5-methylphenyl}amino)pyrimidin-4-yl]ethane-1,2-diol] it is less than 100 nM; for `CC(=O)c1ccnc(Nc2cc(C)cc(-c3cnc(C(C)(O)C(F)(F)F)s3)c2)n1` (stereo not shown) [Example 106, 1-[2-({3-methyl-5-[2-(1,1,1-trifluoro-2-hydroxypropan-2-yl)-1,3-thiazol-5-yl]phenyl}amino)pyrimidin-4-yl]ethanone] it is less than 100 nM.
With `Cc1cc(Nc2nccc(C3CCC3)n2)cc(-c2cnc(C3(O)CCC3)s2)c1` [Example 107, 1-(5-{3-[(4-cyclobutylpyrimidin-2-yl)amino]-5-methylphenyl}-1,3-thiazol-2-yl)cyclobutanol], the IC50 is less than 100 nM.
Still for that read-out and setting: as for `Cc1cc(Nc2nccc(C3CCCC3)n2)cc(-c2cnc(C3(O)CCC3)s2)c1` [Example 107-1], the figure is less than 100 nM; as for `Cc1cc(Nc2nccc(C3CCCCC3)n2)cc(-c2cnc(C3(O)CCC3)s2)c1` [Example 107-2], less than 100 nM.
As for `Cc1cc(Nc2nccc(C(F)(F)F)n2)cc(-c2cnc([C@@]3(O)CC[C@H](C(=O)O)C(C)(C)C3)s2)c1Br` [Example 111, (1S,4R)-4-[5-(2-bromo-3-methyl-5-{[4-(trifluoromethyl)pyrimidin-2-yl]amino}phenyl)-1,3-thiazol-2-yl]-4-hydroxy-2,2-dimethylcyclohexanecarboxylic acid], the IC50 is less than 100 nM.

The same assay, now with this note: rhSYK Activity, Table 108A.
As for `Cc1cc(Nc2nccc(OCc3nccn3C)n2)cc(-c2cnc(C3(O)CCC3)s2)c1` [Example 108A-1], the IC50 is less than 100 nM.
`Cc1cc(Nc2nccc(OCc3c[nH]cn3)n2)cc(-c2cnc(C3(O)CCC3)s2)c1` [Example 108A-2]: the IC50 is less than 100 nM.
For `Cc1cc(Nc2nccc(OCCN3CCOCC3=O)n2)cc(-c2cnc(C3(O)CCC3)s2)c1` [Example 108A-3], the IC50 is less than 100 nM.
Take `Cc1cc(Nc2nccc(OCC3CCCOC3)n2)cc(-c2cnc(C3(O)CCC3)s2)c1` (stereo not shown) [Example 108A-4]: the IC50 was less than 100 nM.
The same measure, in the same setting: the figure for `Cc1cc(Nc2nccc(OC(CN)c3ccncn3)n2)cc(-c2cnc(C3(O)CCC3)s2)c1` (stereo not shown) [Example 108A-6] is less than 100 nM.
Same read-out and setting: the figure for `Cc1cc(Nc2nccc(OCc3cccc4ccnn34)n2)cc(-c2cnc(C3(O)CCC3)s2)c1` [Example 108A-7] is 100 to 1000 nM.
Regarding `Cc1cc(Nc2nccc(OCCc3cnn(C)c3)n2)cc(-c2cnc(C3(O)CCC3)s2)c1` [Example 108A-8], the IC50 was less than 100 nM.
Take `Cc1cc(Nc2nccc(OCc3ccon3)n2)cc(-c2cnc(C3(O)CCC3)s2)c1` [Example 108A-9]: the IC50 is less than 100 nM.
On to `Cc1cc(Nc2nccc(OCCn3nccn3)n2)cc(-c2cnc(C3(O)CCC3)s2)c1` [Example 108A-12], for which the half-maximal inhibitory concentration (IC50) is less than 100 nM.
As for `Cc1cc(Nc2nccc(OCCn3ccnn3)n2)cc(-c2cnc(C3(O)CCC3)s2)c1` [Example 108A-13], the IC50 was less than 100 nM.
As for `Cc1cc(Nc2nccc(OCCNC3CCN(C)CC3)n2)cc(-c2cnc(C3(O)CCC3)s2)c1` [Example 108A-14], the IC50 was in the range of 100 to 1000 nM.
In the case of `Cc1cc(Nc2nccc(OCC3Cc4ccccc4N3)n2)cc(-c2cnc(C3(O)CCC3)s2)c1` (stereo not shown) [Example 108A-15], the IC50 is 100 to 1000 nM.
Regarding `Cc1cc(Nc2nccc(OCc3ccnn3C)n2)cc(-c2cnc(C3(O)CCC3)s2)c1` [Example 108A-16], the IC50 is less than 100 nM.
With `Cc1cc(Nc2nccc(OCCN3CCCNCC3)n2)cc(-c2cnc(C3(O)CCC3)s2)c1` [Example 108A-19], the IC50 was less than 100 nM.
As to `Cc1cc(Nc2nccc(OCC3CN(C)CCN3C)n2)cc(-c2cnc(C3(O)CCC3)s2)c1` (stereo not shown) [Example 108A-20], the IC50 was less than 100 nM.
For the compound `Cc1cc(Nc2nccc(OCCc3nnn[nH]3)n2)cc(-c2cnc(C3(O)CCC3)s2)c1` [Example 108A-21], the IC50 was less than 100 nM.
For the compound `Cc1cc(Nc2nccc(OCC#Cc3cncnc3)n2)cc(-c2cnc(C3(O)CCC3)s2)c1` [Example 108A-22], the IC50 lay within 100 to 1000 nM.
The same measure, in the same setting: as for `Cc1cc(Nc2nccc(OCC3CC(=O)N(C)C3)n2)cc(-c2cnc(C3(O)CCC3)s2)c1` (stereo not shown) [Example 108A-23], the figure is less than 100 nM.
As to `Cc1cc(Nc2nccc(OCC3(C)CCCNC3)n2)cc(-c2cnc(C3(O)CCC3)s2)c1` (stereo not shown) [Example 108A-24], the concentration for half-maximal inhibition (IC50) is less than 100 nM.
Consider `Cc1cc(Nc2nccc(OCCC3CN(C)CCO3)n2)cc(-c2cnc(C3(O)CCC3)s2)c1` (stereo not shown) [Example 108A-25], for which the IC50 is less than 100 nM.
Take `Cc1cc(Nc2nccc(OC(C)CN3CC(C)OC3=O)n2)cc(-c2cnc(C3(O)CCC3)s2)c1` (stereo not shown) [Example 108A-27]: the IC50 was less than 100 nM.
As to `Cc1cc(Nc2nccc(OCCOc3cccc(O)c3)n2)cc(-c2cnc(C3(O)CCC3)s2)c1` [Example 108A-28], the IC50 fell in the range of 100 to 1000 nM.
Consider `Cc1cc(Nc2nccc(OCCCc3cccnc3)n2)cc(-c2cnc(C3(O)CCC3)s2)c1` [Example 108A-29], for which the IC50 is less than 100 nM.
`Cc1cc(Nc2nccc(OCCN3CCCC3=O)n2)cc(-c2cnc(C3(O)CCC3)s2)c1` [Example 108A-30]: the IC50 is less than 100 nM.
In the case of `Cc1cc(Nc2nccc(OCCCCO)n2)cc(-c2cnc(C3(O)CCC3)s2)c1` [Example 108A-31], the IC50 is less than 100 nM.
On to `Cc1cc(Nc2nccc(OCCO)n2)cc(-c2cnc(C3(O)CCC3)s2)c1` [Example 108A-34], for which the IC50 was less than 100 nM.
As for `Cc1cc(Nc2nccc(OCCCO)n2)cc(-c2cnc(C3(O)CCC3)s2)c1` [Example 108A-35], the IC50 was less than 100 nM.
On the same count and under the same terms, the figure for `CCOc1ccnc(Nc2cc(C)cc(-c3cnc(C4(O)CCC4)s3)c2)n1` [Example 108A-36] is less than 100 nM; for `Cc1cc(Nc2nccc(OC(C)C)n2)cc(-c2cnc(C3(O)CCC3)s2)c1` [Example 108A-37] it is less than 100 nM; for `Cc1cc(Nc2nccc([S+](C)[O-])n2)cc(-c2cnc(C3(O)CCC3)s2)c1` (stereo not shown) [Example 108A-38] it is less than 100 nM.
Turning to `Cc1cc(Nc2nccc(S(C)(=O)=O)n2)cc(-c2cnc(C3(O)CCC3)s2)c1` [Example 108A-39], the IC50 was less than 100 nM.
`CCSc1ccnc(Nc2cc(C)cc(-c3cnc(C4(O)CCC4)s3)c2)n1` [Example 108A-40]: the IC50 is less than 100 nM.
For `CCCCSc1ccnc(Nc2cc(C)cc(-c3cnc(C4(O)CCC4)s3)c2)n1` [Example 108A-41], the IC50 was in the range of 100 to 1000 nM.
As for `Cc1cc(Nc2nccc(SC(C)C)n2)cc(-c2cnc(C3(O)CCC3)s2)c1` [Example 108A-43], the IC50 was less than 100 nM.
Same read-out and setting: as for `Cc1cc(Nc2nccc(SCCO)n2)cc(-c2cnc(C3(O)CCC3)s2)c1` [Example 108A-44], the figure is less than 100 nM; as for `Cc1cc(Nc2nccc(SCCCO)n2)cc(-c2cnc(C3(O)CCC3)s2)c1` [Example 108A-45], less than 100 nM; as for `Cc1cc(Nc2nccc(SCCCCO)n2)cc(-c2cnc(C3(O)CCC3)s2)c1` [Example 108A-46], less than 100 nM.

Still in this assay, the particulars now being: rhSYK Activity, Table 109.
Turning to `CC(=O)N1CCC(Oc2ccnc(Nc3cc(N)cc(-c4cnc(C5(O)CCC5)s4)c3)n2)CC1` [Example 109-6], the IC50 was less than 100 nM.
The same measure, in the same setting: the figure for `O=C(Nc1cc(Nc2nccc(OC3CCOCC3)n2)cc(-c2cnc(C3(O)CCC3)s2)c1)C(F)(F)F` [Example 109-7] is 100 to 1000 nM; for `CC(=O)Nc1cc(Nc2nccc(OC3CCOCC3)n2)cc(-c2cnc(C3(O)CCC3)s2)c1` [Example 109-8] it is less than 100 nM; for `Nc1cc(Nc2nccc(OC3CCOCC3)n2)cc(-c2cnc(C3(O)CCC3)s2)c1` [Example 109-9] it is less than 100 nM.
In the case of `NC(=O)Nc1cc(Nc2nccc(OC3CCNCC3)n2)cc(-c2cnc(C3(O)CCC3)s2)c1` [Example 109-11], the IC50 is less than 100 nM.
With `Nc1cc(Nc2nccc(OC3CCNCC3)n2)cc(-c2cnc(C3(O)CCC3)s2)c1` [Example 109-12], the IC50 is less than 100 nM.
For the compound `Nc1cc(Nc2nccc(OC3CNC3)n2)cc(-c2cnc(C3(O)CCC3)s2)c1` [Example 109-14], the IC50 is less than 100 nM.

Still in this assay, the particulars now being: rhSYK Activity, Table 113A.
Turning to `COCCOc1ccnc(Nc2cc(C)cc(-c3cnc(C4(O)CCC(C(=O)O)CC4)s3)c2)n1` (stereo not shown) [Example 113A-1], the IC50 is less than 100 nM.
`COCCCOc1ccnc(Nc2cc(C)cc(-c3cnc([C@]4(O)CC[C@@H](C(=O)O)CC4)s3)c2)n1` [Example 113A-2]: the IC50 was less than 100 nM.
In the case of `O=C(O)[C@H]1CC[C@](O)(c2ncc(-c3cc(Cl)cc(Nc4nccc(C(F)(F)F)n4)c3)s2)CC1` [Example 113A-3], the IC50 was less than 100 nM.
